Experimental data reported in PMC3355094 (PLoS Pathogens, 2012).
Several values for one entry are separate records, joined by “and”; a condition that tells them apart may be missing. Equal values may be shown once. Read-outs that look alike come from different tables or passages of the source.

Tests used:
[1] = tested on: CCL2; assay: Glycan array analysis of CCL2 (CFG mammalian glycan array V3.1); assay type: binding, Coprinopsis cinerea; conditions: for RFU (relative fluorescence units): Alexa Fluor 488 labeled CCL2 200 µg/ml, array V3.1, average of triplicates; for binding on glycan array (in words): fluorescently labeled CCL2 200 µg/ml, array V3.1
Description: (§1) Purified CCL1 and CCL2 were fluorescently labeled with Alexa Fluor 488 (Invitrogen) according to the manufacturer's protocol and used (at a final concentration of 200 µg/ml) to probe versions 4.2 and 3.1, respectively, of the mammalian glycan array offered by Core H of the Consortium for Functional Glycomics (CFG).

[2] = tested on: CCL1; assay: Glycan array analysis of CCL1 (CFG mammalian glycan array V4.2); assay type: binding, Coprinopsis cinerea; conditions: Alexa Fluor 488 labeled CCL1 200 µg/ml, array V4.2, average of triplicates
Description: as §1

[3] = biological target: RSL; assay type: binding; conditions: read-out: KD [μmol]; cited from earlier work
[4] = biological target: T1, CCL2 (Wild type) (Coprinopsis cinerea, UniProt B3GA02); assay: biochemical; assay type: binding
T1 construct: recombinant from E. coli, eight N-terminal His-residues (His8), monomer
T1 sequence (B3GA02 2-142): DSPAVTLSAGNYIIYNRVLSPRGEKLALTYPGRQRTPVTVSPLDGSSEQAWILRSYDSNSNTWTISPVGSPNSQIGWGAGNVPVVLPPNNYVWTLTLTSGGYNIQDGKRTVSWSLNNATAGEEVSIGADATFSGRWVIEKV

[5] = biological target: T2, CCL2 wild-type (Coprinopsis cinerea, UniProt B3GA02); assay type: binding
T2 sequence (B3GA02 2-142 limits assumed): as the sequence (B3GA02 2-142) above

[6] = biological target: MOA; assay: Literature thermodynamic binding data of lectin-carbohydrate interactions compiled in Table S6 for comparison; conditions not given; design: method as in values quoted from other papers; conditions: read-out: KD [μmol]; cited from earlier work
[7] = biological target: T2, CCL2 wild-type; assay type: binding; remark: listed apart in the source
[8] = biological target: Calreticulin; assay: Literature thermodynamic binding data of lectin-carbohydrate interactions compiled in Table S6 for comparison; conditions not given; design: method as in values quoted from other papers; conditions: read-out: KD [μmol]; cited from earlier work
[9] = design: method as in ref 3 of Table S6 (Gupta et al. 2008); conditions: ligand Glc1,3Man1,2ManOMe; ref 3 of Table S6 (Gupta et al. 2008); cited from earlier work
[10] = ligand Glc1,3Man1,2Man1,2Man; ref 2 of Table S6 (Kozlov et al. 2010); cited from earlier work
[11] = carbohydrate titrated to CCL2 wild-type

## 6-H2PO3Man-Sp8
[1]
  RFU (relative fluorescence units): 118.9 RFU
[2]
  RFU (relative fluorescence units): 3 RFU

## C[C@@H]1O[C@@H](O[C@H]2[C@H](O[C@H]3[C@H](O)[C@@H](O)C(O)O[C@@H]3CO)O[C@H](CO)[C@H](O)[C@@H]2O)[C@@H](O)[C@H](O)[C@@H]1O (stereo partly shown) [2-Fucosyllactose, 2'-fucosyllactose]
[3]
  Kd: 250 nM

## NCCCO[C@@H]1O[C@H](CO)[C@@H](O)[C@H](O)[C@H]1NC(=O)CO [-GlcN(Gc)-Sp8, -GlcN(Gc)- Sp8]
[1]
  RFU (relative fluorescence units): 136.2 RFU

## CC(=O)N[C@H]1[C@H](OCCN)O[C@H](CO)[C@@H](O)[C@@H]1O [-GlcNAc–Sp0]
[1]
  RFU (relative fluorescence units): 172.7 RFU

## C[C@@H]1O[C@@H](OCCCN)[C@@H](O)[C@H](O)[C@@H]1O [-L-Fuc–Sp8]
[1]
  RFU (relative fluorescence units): 416.6 RFU

## C[C@@H]1O[C@@H](OCCCN)[C@H](O)[C@H](O)[C@H]1O [-L-Rha-Sp8]
[1]
  RFU (relative fluorescence units): 112.5 RFU

## CO[C@@H]1O[C@@H](C)[C@@H](O)[C@@H](O)[C@@H]1O [FucOMe, methyl fucopyranoside]
[3]
  Kd: 730 nM

## CO[C@@H]1O[C@H](CO)[C@@H](O)[C@H](O[C@@H]2O[C@@H](C)[C@@H](O)[C@@H](O)[C@@H]2O)[C@H]1NC(C)=O [Fucα1,3GlcNAc-OMe, Fucα1,3GlcNAc methyl glycoside]
[4]
  Kd: > 500000 nM

## CO[C@@H]1O[C@H](CO)[C@@H](O)[C@H](O[C@@H]2O[C@@H](C)[C@@H](O)[C@@H](O)[C@@H]2O)[C@H]1NC(C)=O [Fucα1,3GlcNAc-OMe]
[5]
  NMR titration: no binding

## CC(=O)N[C@H]1C(O)O[C@H](CO)[C@@H](O)[C@@H]1O[C@@H]1O[C@@H](C)[C@@H](O)[C@@H](O)[C@@H]1O (stereo partly shown) [Fucα1,3GlcNAc]
[1]
  binding on glycan array (in words): very low fluorescence

## CC(=O)N[C@H]1C(O)O[C@H](CO)[C@@H](O[C@@H]2O[C@H](CO)[C@H](O)[C@H](O[C@H]3O[C@H](CO)[C@H](O)[C@H](O)[C@H]3O)[C@H]2O)[C@@H]1O (stereo partly shown) [Gal1,3Gal1,4GlcNAc, Galα1,3Galβ1,4GlcNAc]
[6]
  Kd: 42300 nM

## C[C@@H]1O[C@@H](O[C@H]2C(O)O[C@H](CO)[C@H](O)[C@@H]2O[C@H]2O[C@H](CO)[C@H](O)[C@H](O)[C@H]2O)[C@@H](O)[C@H](O)[C@@H]1O (stereo partly shown) [Galα1,3[Fucα1,2]Gal, blood group B trisaccharide]
[6]
  Kd: 36000 nM

## CC(=O)NC1C(OC2C(CO)OC(O)C(O)C2O)OC(CO)C(OC2OC(CO)C(O)C(O)C2O)C1OC1OC(C)C(O)C(O)C1O (stereo not shown) [Galβ1,4[Fucα1,3]GlcNAcβ1,4Gal]
[5]
  NMR titration: large chemical shift deviations, slow to intermediate exchange

## CO[C@@H]1O[C@H](CO)[C@@H](O[C@@H]2O[C@H](CO)[C@H](O)[C@H](O)[C@H]2O)[C@H](O[C@@H]2O[C@@H](C)[C@@H](O)[C@@H](O)[C@@H]2O)[C@H]1NC(C)=O [Galβ1,4[Fucα1,3]GlcNAcβ1-OMe, Lewis X trisaccharide methyl glycoside]
[4]
  Kd: 456000 nM

## CO[C@@H]1O[C@H](CO)[C@@H](O[C@@H]2O[C@H](CO)[C@H](O)[C@H](O)[C@H]2O)[C@H](O[C@@H]2O[C@@H](C)[C@@H](O)[C@@H](O)[C@@H]2O)[C@H]1NC(C)=O [Galβ1,4[Fucα1,3]GlcNAcβ1-OMe]
[7]
  drop in affinity: ~300 fold

## CO[C@H]1O[C@H](CO)[C@@H](O)[C@H](O)[C@@H]1O[C@H]1O[C@H](CO)[C@@H](O)[C@H](O[C@H]2O[C@H](CO)[C@@H](O)[C@H](O)[C@H]2O)[C@@H]1O [Glc1,3Man1,2ManOMe, Glcα1,3Manα1,2Manα-OMe (methyl glycoside)]
[8]
  Kd: 1800 nM

## CC(=O)N[C@H]1[C@H](O[C@H]2[C@H](O[C@@H]3O[C@@H](C)[C@@H](O)[C@@H](O)[C@@H]3O)[C@@H](NC(C)=O)[C@H](OCCCCCC(=O)O)O[C@@H]2CO)O[C@H](CO)[C@@H](O)[C@@H]1O [GlcNAcβ1,4[Fucα1,3]GlcNAcβ1-sp, GlcNAcβ1,4[Fucα1,3]GlcNAcβ-O(CH2)5COONa]
[7]
  ΔH: -11.9 kcal/mol
  −TΔS: 3.9 kcal/mol
[5]; [11]
  NMR titration: large chemical shift deviations, slow exchange

## OC[C@H]1O[C@H](O[C@@H]2[C@H](O)[C@@H](O[C@@H]3[C@@H](O[C@@H]4C(O)O[C@H](CO)[C@@H](O)[C@@H]4O)O[C@H](CO)[C@@H](O)[C@@H]3O)O[C@H](CO)[C@H]2O)[C@H](O)[C@@H](O)[C@@H]1O (stereo partly shown) [Glcα1,3Manα1,2Manα1,2Man, Glcα1,3Manα1,2Manα1,2Man tetrasaccharide]
[8]
  Kd: 770 nM

## CC(=O)N[C@H]1[C@H](O[C@H]2[C@H](O[C@@H]3O[C@@H](C)[C@@H](O)[C@@H](O)[C@@H]3O)[C@@H](NC(C)=O)C(O)O[C@@H]2CO)O[C@H](CO)[C@H](O)[C@@H]1O (stereo partly shown) [fucosylated LacdiNAc, GalNAcβ1,4[Fucα1,3]GlcNAc]
[1]
  binding on glycan array (in words): binds
[1]; listed as GalNAcβ1,4[Fucα1,3]GlcNAc
  binding on glycan array (in words): one of the best binders

## (Gal1-4GlcNAc)2-3,6-GalNAc-Sp8
[1]
  RFU (relative fluorescence units): 397.4 RFU

## -D-Gal–Sp8
[1]
  RFU (relative fluorescence units): 280.7 RFU and 194.7 RFU

## -GalNAc–Sp8
[1]
  RFU (relative fluorescence units): 151.8 RFU and 273.6 RFU

## -GlcNAc–Sp8
[1]
  RFU (relative fluorescence units): 160.7 RFU

## -L-Fuc–Sp9
[1]
  RFU (relative fluorescence units): 136.8 RFU

## -Neu5Ac-Sp8
[1]
  RFU (relative fluorescence units): 122.4 RFU

## -Neu5Ac–Sp8
[1]
  RFU (relative fluorescence units): 247.4 RFU

## -Neu5Ac–Sp11
[1]
  RFU (relative fluorescence units): 119.3 RFU

## Calreticulin
[9]
  –TΔS: -0.813 kcal/mol
  –ΔH: 7.15 kcal/mol
[10]
  –TΔS: 3.75 kcal/mol
  –ΔH: 12 kcal/mol

## Gal1-3GlcNAc1-2Man1-3(Gal1-3GlcNAc1-2Man1-6)Man1-4GlcNAc1-4GlcNAc-Sp19
[1]
  RFU (relative fluorescence units): 453.7 RFU

## Gal1-4GlcNAc1-2Man1-3(Gal1-4GlcNAc1-2Man1-6)Man1-4GlcNAc1-
[1]
  RFU (relative fluorescence units): 575.8 RFU

## GlcNAc1-2Man1-3(GlcNAc1-2Man1-6)Man1-4GlcNAc1-4GlcNAc-Sp13
[1]
  RFU (relative fluorescence units): 674.3 RFU
[2]
  RFU (relative fluorescence units): 68 RFU

## GlcNAc1-3(GlcNAc1-4)(GlcNAc1-6)GlcNAc-Sp8
[1]
  RFU (relative fluorescence units): 103.1 RFU
[2]
  RFU (relative fluorescence units): 264 RFU

## Man1-3(Man1-6)Man1-4GlcNAc1-4GlcNAc-Sp13
[1]
  RFU (relative fluorescence units): 525.3 RFU
[2]
  RFU (relative fluorescence units): 116 RFU

## Neu5Ac2-6Gal1-4GlcNAc1-2Man1-3(Neu5Ac2-6Gal1-4GlcNAc1-2Man1-6)Man1-4GlcNAc1-4GlcNAc-Sp12
[1]
  RFU (relative fluorescence units): 183.9 RFU
[2]
  RFU (relative fluorescence units): 122 RFU

## Neu5Ac2-8Neu5Ac2-8Neu5AcSp8
[1]
  RFU (relative fluorescence units): 66.6 RFU

## Neu5Ac2-8Neu5Ac-Sp17
[1]
  RFU (relative fluorescence units): 155.0 RFU

## Neu5Acα2,3Galβ1,4Glc
[5]; [11]
  NMR titration: no binding

## Neu5Gc2-6Gal1-4GlcNAc-Sp8
[1]
  RFU (relative fluorescence units): 182.6 RFU

## NeuAc2-3[6OSO3]Gal1-4GlcNAc–Sp8
[1]
  RFU (relative fluorescence units): 40316.6 RFU

## [3OSO3]Gal1-3(Fuc1-4)GlcNAc–Sp8
[1]
  RFU (relative fluorescence units): 628.7 RFU

## [3OSO3]Gal1-3GalNAc-Sp8
[1]
  RFU (relative fluorescence units): 216.8 RFU
[2]
  RFU (relative fluorescence units): 118 RFU

## [3OSO3]Gal1-3GlcNAc–Sp8
[1]
  RFU (relative fluorescence units): 403.9 RFU

## [3OSO3]Gal1-4(6OSO3)Glc–Sp0
[1]
  RFU (relative fluorescence units): 151.3 RFU

## [3OSO3]Gal1-4(6OSO3)Glc–Sp8
[1]
  RFU (relative fluorescence units): 1039.1 RFU

## [3OSO3]Gal1-4(Fuc1-3)GlcNAc–Sp8
[1]
  RFU (relative fluorescence units): 265.1 RFU

## [3OSO3]Gal1-4Glc-Sp8
[1]
  RFU (relative fluorescence units): 152.3 RFU
[2]
  RFU (relative fluorescence units): 29 RFU

## [3OSO3]Gal1-4GlcNAc-Sp8
[1]
  RFU (relative fluorescence units): 110.8 RFU
[2]
  RFU (relative fluorescence units): 110 RFU

## [3OSO3]Gal1-4GlcNAc–Sp0
[1]
  RFU (relative fluorescence units): 115.6 RFU

## [3OSO3]Gal1-4[6OSO3]GlcNAc-Sp8
[1]
  RFU (relative fluorescence units): 101.0 RFU
[2]
  RFU (relative fluorescence units): 333 RFU

## [3OSO3]Gal–Sp8
[1]
  RFU (relative fluorescence units): 75.5 RFU

## [3OSO3][6OSO3]Gal1-4GlcNAc-Sp0
[1]
  RFU (relative fluorescence units): 193.4 RFU
[2]
  RFU (relative fluorescence units): 25 RFU

## [3OSO3][6OSO3]Gal1-4[6OSO3]GlcNAc-Sp0
[1]
  RFU (relative fluorescence units): 367.7 RFU
[2]
  RFU (relative fluorescence units): 3 RFU

## [4OSO3]Gal1-4GlcNAc-Sp8
[1]
  RFU (relative fluorescence units): 350.4 RFU
[2]
  RFU (relative fluorescence units): 17 RFU

## [4OSO3][6OSO3]Gal1-4GlcNAc-Sp0
[1]
  RFU (relative fluorescence units): 222.7 RFU
[2]
  RFU (relative fluorescence units): 5 RFU

## [6OSO3]Gal1-4GlcNAc–Sp8
[1]
  RFU (relative fluorescence units): 133.9 RFU

## [6OSO3]Gal1-4Glc–Sp0
[1]
  RFU (relative fluorescence units): 307.4 RFU

## [6OSO3]Gal1-4Glc–Sp8
[1]
  RFU (relative fluorescence units): 269.4 RFU

## [6OSO3]Gal1-4[6OSO3]Glc-Sp8
[1]
  RFU (relative fluorescence units): 298.1 RFU
[2]
  RFU (relative fluorescence units): 20 RFU

## [6OSO3]GlcNAc–Sp8
[1]
  RFU (relative fluorescence units): 141.7 RFU
